{"source": "PubChem BioAssay AID1259340", "about": "(Broad Institute, 2017)", "target": "Caspase recruitment domain-containing protein 9 (Homo sapiens) + B-cell lymphoma/leukemia 10 (Homo sapiens) (UniProt Q9H257+O95999)", "sequence (O95999 whole entry, looked up, the tested form may be a part)": "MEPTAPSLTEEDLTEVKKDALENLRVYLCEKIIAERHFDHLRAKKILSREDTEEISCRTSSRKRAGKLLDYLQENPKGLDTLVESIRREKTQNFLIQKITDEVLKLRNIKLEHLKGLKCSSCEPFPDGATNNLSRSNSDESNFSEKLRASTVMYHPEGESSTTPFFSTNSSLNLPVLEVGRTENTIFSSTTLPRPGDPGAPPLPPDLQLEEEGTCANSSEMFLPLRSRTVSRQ", "sequence (Q9H257 whole entry, looked up, the tested form may be a part)": "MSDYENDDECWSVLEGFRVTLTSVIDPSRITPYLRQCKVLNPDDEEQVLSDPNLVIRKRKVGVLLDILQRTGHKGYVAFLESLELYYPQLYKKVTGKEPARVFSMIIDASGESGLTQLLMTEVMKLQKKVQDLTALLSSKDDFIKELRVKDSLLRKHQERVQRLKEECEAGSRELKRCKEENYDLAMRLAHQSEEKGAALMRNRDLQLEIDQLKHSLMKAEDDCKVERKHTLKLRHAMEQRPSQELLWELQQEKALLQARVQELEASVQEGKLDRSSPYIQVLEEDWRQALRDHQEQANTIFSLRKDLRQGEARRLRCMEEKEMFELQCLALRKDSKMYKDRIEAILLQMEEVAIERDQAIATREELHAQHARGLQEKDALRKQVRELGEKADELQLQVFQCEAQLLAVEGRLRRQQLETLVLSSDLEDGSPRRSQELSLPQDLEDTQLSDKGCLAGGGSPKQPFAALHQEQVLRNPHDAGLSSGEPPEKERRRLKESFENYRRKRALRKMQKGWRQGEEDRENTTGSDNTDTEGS", "test": "disruptors of CARD9-BCL10 binding, dose response, selectivity assay for CARD9-TRIM62 disruptor project, cell lysate, HEK293FT lysates, Luminex bead ELISA (AID 1259340)", "settings": "at 80 µM (top of the series)", "note": "Active and inactive are the calls of the source.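 The calls were made as follows: active = AC50 no more than ten times the top concentration tested; inconclusive = flat fit with inhibition between 30% and 70%, or unusable fit; inactive = AC50 beyond ten times the top concentration.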", "data": [{"compound": "NC(=O)C1(N2CCCCC2)CCN(c2ncc(NC(=O)c3ccc(Cl)cc3)cc2C(=O)O)CC1", "values": [{"measurement": "activity change, negative = inhibition", "result": "inactive"}]}, {"compound": "O=C(Cn1c(=O)cc(C(=O)N2CCc3ccccc3C2)c2ccccc21)NCc1ccc2c(c1)OCO2", "values": [{"measurement": "activity change, negative = inhibition", "result": "inactive"}]}, {"compound": "c1cn(CCc2noc(C3CCCC3)n2)c(-c2cc3n(n2)CCCNC3)n1", "values": [{"measurement": "activity change, negative = inhibition", "result": "inactive"}]}]}
